Laboratory results from PubChem BioAssay AID330 (DTP/NCI, 2004).
Values joined by “and” are separate entries in the source; they are usually repeats but may differ in a detail not shown here. Equal values may be shown once. Inconclusive results and toxic doses are left out.

System: P388 leukemia ip, CD2F1 mice, survival T/C
Test: NCI In Vivo Anticancer Drug Screen. Data for tumor model P388 Leukemia (intraperitoneal) in CD2F1 (CDF1) mice
Details: endpoint: median survival time, higher = longer survival
Outline: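 Mice carrying the transplanted tumor received test compound or vehicle. Survival was recorded in each group, and the value is the treated-group measurement divided by that of the vehicle-treated control group.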

[1] = dose: 100.0 mg/kg/injection, schedule: Q04DX003 (ip), vehicle: saline
[2] = dose: 25.0 mg/kg/injection, schedule: Q01DX009 (ip), vehicle: distilled water + Tween-80
[3] = dose: 50.0 mg/kg/injection, schedule: Q01DX009 (ip), vehicle: distilled water + Tween-80
[4] = dose: 25.0 mg/kg/injection, schedule: Q01DX009 (ip), vehicle: saline
[5] = dose: 200.0 mg/kg/injection, schedule: Q04DX003 (ip), vehicle: saline
[6] = dose: 400.0 mg/kg/injection, schedule: Q04DX003 (ip), vehicle: saline
[7] = dose: 25.0 mg/kg/injection, schedule: Q01DX005 (ip), vehicle: saline with Tween-80
[8] = dose: 50.0 mg/kg/injection, schedule: Q01DX005 (ip), vehicle: saline with Tween-80
[9] = dose: 100.0 mg/kg/injection, schedule: Q01DX005 (ip), vehicle: saline with Tween-80
[10] = dose: 50.0 mg/kg/injection, schedule: Q01DX009 (ip), vehicle: saline with Tween-80
[11] = dose: 100.0 mg/kg/injection, schedule: Q01DX009 (ip), vehicle: saline with Tween-80
[12] = dose: 200.0 mg/kg/injection, schedule: Q01DX005 (ip), vehicle: saline with Tween-80
[13] = dose: 50.0 mg/kg/injection, schedule: Q01DX005 (ip), vehicle: Klucel (hydroxypropylcellulose) (HPC)
[14] = dose: 100.0 mg/kg/injection, schedule: Q01DX005 (ip), vehicle: Klucel (hydroxypropylcellulose) (HPC)
[15] = dose: 200.0 mg/kg/injection, schedule: Q01DX005 (ip), vehicle: Klucel (hydroxypropylcellulose) (HPC)

For COc1cccc2c1C(=O)c1c(O)c3c(c(O)c1C2=O)CC(O)(C(O)CO)CC3OC1CC(N2CCSCC2)C(O)C(C)O1 (stereo unspecified), the T/C (dose: 3.12 mg/kg/injection, schedule: Q04DX003 (ip), vehicle: saline) was 103 % of control, the T/C (dose: 6.25 mg/kg/injection, schedule: Q04DX003 (ip), vehicle: saline) was 110 % of control and the T/C (dose: 12.5 mg/kg/injection, schedule: Q04DX003 (ip), vehicle: saline) was 110 % of control and 112 % of control. The T/C (dose: 25.0 mg/kg/injection, schedule: Q04DX003 (ip), vehicle: saline) was 122 % of control and the T/C [1] was 122 % of control.
For O=Cc1cccc[n+]1Cc1ccc2c(c1)OCO2, the T/C [2] was 100 % of control and the T/C [3] was 100 % of control.
In the case of C[n+]1ccc(C(c2ccccc2)c2ccccc2)cc1, the T/C (dose: 6.25 mg/kg/injection, schedule: Q01DX009 (ip), vehicle: saline) is reported as 104 % of control, the T/C (dose: 12.5 mg/kg/injection, schedule: Q01DX009 (ip), vehicle: saline) is reported as 112 % of control and the T/C [4] is reported as 100 % of control.
C[n+]1ccccc1C(=O)O was tested, and the T/C [4] was 102 % of control, the T/C (dose: 50.0 mg/kg/injection, schedule: Q01DX009 (ip), vehicle: saline) was 98 % of control and the T/C (dose: 100.0 mg/kg/injection, schedule: Q01DX009 (ip), vehicle: saline) was 103 % of control. The T/C (dose: 200.0 mg/kg/injection, schedule: Q01DX009 (ip), vehicle: saline) was 92 % of control.
BrC1CCCCC(Br)C12OCCO2 (stereo unspecified) was tested, and the T/C [1] was 107 % of control, the T/C [5] was 104 % of control and the T/C [6] was 106 % of control.
With CCN(CC)CCSCCN(CC)CC the T/C [7] was 98 % of control, the T/C [8] was 110 % of control and the T/C [9] was 98 % of control.
For Cc1ccc(S(=O)(=O)NN=C(C(=O)O)C(=O)O)cc1, the T/C (dose: 12.5 mg/kg/injection, schedule: Q01DX009 (ip), vehicle: distilled water + Tween-80) was 101 % of control, the T/C [2] was 102 % of control and the T/C [3] was 100 % of control. The T/C (dose: 200.0 mg/kg/injection, schedule: Q01DX009 (ip), vehicle: distilled water + Tween-80) was 90 % of control.
With CCOC(OCC)N(C)C the T/C (dose: 60.0 mg/kg/injection, schedule: Q01DX005 (ip), vehicle: saline) was 95 % of control, the T/C (dose: 120.0 mg/kg/injection, schedule: Q01DX005 (ip), vehicle: saline) was 100 % of control and the T/C (dose: 240.0 mg/kg/injection, schedule: Q01DX005 (ip), vehicle: saline) was 93 % of control.
For CCOC1(C)C=CC(=NC(C)(C)C)C=C1 (stereo unspecified), the T/C (dose: 25.0 mg/kg/injection, schedule: Q01DX009 (ip), vehicle: saline with Tween-80) was 97 % of control, the T/C [10] was 101 % of control and the T/C [11] was 101 % of control.
In the case of CNC(=O)OCc1nc(SC)n(-c2ccccc2)c1COC(=O)NC, the T/C (dose: 12.5 mg/kg/injection, schedule: Q01DX005 (ip), vehicle: distilled water + Tween-80) is reported as 99 % of control, the T/C (dose: 25.0 mg/kg/injection, schedule: Q01DX005 (ip), vehicle: distilled water + Tween-80) is reported as 101 % of control and the T/C (dose: 50.0 mg/kg/injection, schedule: Q01DX005 (ip), vehicle: distilled water + Tween-80) is reported as 99 % of control and 102 % of control and 92 % of control. For the same compound, the T/C (dose: 100.0 mg/kg/injection, schedule: Q01DX005 (ip), vehicle: distilled water + Tween-80) was 101 % of control and 106 % of control and 108 % of control, the T/C (dose: 200.0 mg/kg/injection, schedule: Q01DX005 (ip), vehicle: distilled water + Tween-80) was 113 % of control and the T/C (dose: 400.0 mg/kg/injection, schedule: Q01DX005 (ip), vehicle: distilled water + Tween-80) was 99 % of control.
In the case of CCOc1ccc(NC(=O)OCc2c3ccccc3cc3ccccc23)cc1, the T/C (dose: 50.0 mg/kg/injection, schedule: Q01DX009 (ip), vehicle: Klucel (hydroxypropylcellulose) (HPC)) is reported as 100 % of control, the T/C (dose: 100.0 mg/kg/injection, schedule: Q01DX009 (ip), vehicle: Klucel (hydroxypropylcellulose) (HPC)) is reported as 96 % of control and the T/C (dose: 200.0 mg/kg/injection, schedule: Q01DX009 (ip), vehicle: Klucel (hydroxypropylcellulose) (HPC)) is reported as 105 % of control.
Oc1ccccc1C=NCCN=Cc1ccccc1O was tested, and the T/C [10] was 99 % of control, the T/C [11] was 99 % of control and the T/C (dose: 200.0 mg/kg/injection, schedule: Q01DX009 (ip), vehicle: saline with Tween-80) was 101 % of control. The T/C (dose: 400.0 mg/kg/injection, schedule: Q01DX009 (ip), vehicle: saline with Tween-80) was 105 % of control.
In the case of COc1cc2c(cc1OC)C1CC(CC(N)=O)(C(N)=O)CCN1CC2 (stereo unspecified), the T/C [8] is reported as 97 % of control, the T/C [9] is reported as 94 % of control and the T/C [12] is reported as 90 % of control.
CN(C)c1ccc(C(=C2C=CC(=[N+](C)C)C=C2)c2cc(S(=O)(=O)O)cc3cc(S(=O)(=O)O)ccc23)cc1 was tested, and the T/C [8] was 103 % of control, the T/C [9] was 107 % of control and the T/C [12] was 100 % of control.
For CC[C@@]1(O)C(=O)OCc2c1cc1n(c2=O)Cc2cc3c(OC)cccc3nc2-1, the T/C (dose: 0.39 mg/kg/injection, schedule: Q04DX003 (ip), vehicle: other) was 115 % of control, the T/C (dose: 1.0 mg/kg/injection, schedule: Q01DX009 (ip), vehicle: saline with Tween-80) was 217 % of control and the T/C (dose: 1.5 mg/kg/injection, schedule: Q01DX009 (ip), vehicle: saline with Tween-80) was 181 % of control and 192 % of control. The T/C (dose: 2.25 mg/kg/injection, schedule: Q01DX009 (ip), vehicle: saline with Tween-80) was 100 % of control, the T/C (dose: 3.0 mg/kg/injection, schedule: Q01DX009 (ip), vehicle: saline with Tween-80) was 103 % of control and the T/C (dose: 3.13 mg/kg/injection, schedule: Q04DX003 (ip), vehicle: other) was 191 % of control. The T/C (dose: 6.25 mg/kg/injection, schedule: Q04DX003 (ip), vehicle: other) was 90 % of control.
For COc1c(C)c(O)c2c(c1O)/C(=C/N=NC(N)=S)C(Cl)=N2, the T/C (dose: 100.0 mg/kg/injection, schedule: Q01DX001 (ip), vehicle: saline with Tween-80) was 103 % of control, the T/C (dose: 200.0 mg/kg/injection, schedule: Q01DX001 (ip), vehicle: saline with Tween-80) was 103 % of control and the T/C (dose: 400.0 mg/kg/injection, schedule: Q01DX001 (ip), vehicle: saline with Tween-80) was 96 % of control.
In the case of CCCC(=O)O.CCCC(=O)O.CCCC(=O)O.CCCC(=O)O.O=P1(N(CCCl)CCCl)NCCCO1.O=P1(N(CCCl)CCCl)NCCCO1.[Rh].[Rh] (stereo unspecified), the T/C (dose: 0.13 mg/kg/injection, schedule: Q01DX009 (ip), vehicle: olive oil, sesame oil, peanut oil) is reported as 103 % of control, the T/C (dose: 0.25 mg/kg/injection, schedule: Q01DX009 (ip), vehicle: olive oil, sesame oil, peanut oil) is reported as 112 % of control and the T/C (dose: 0.5 mg/kg/injection, schedule: Q01DX009 (ip), vehicle: olive oil, sesame oil, peanut oil) is reported as 101 % of control. For the same compound, the T/C (dose: 1.0 mg/kg/injection, schedule: Q01DX009 (ip), vehicle: olive oil, sesame oil, peanut oil) was 117 % of control.
In the case of CCCCOc1cc2c(cc1C(C)c1ccccc1)OCO2 (stereo unspecified), the T/C (dose: 12.5 mg/kg/injection, schedule: Q01DX005 (ip), vehicle: saline with Tween-80) is reported as 94 % of control, the T/C [7] is reported as 91 % of control and the T/C [8] is reported as 101 % of control and 90 % of control.
For CCn1c(-c2ccc(OC(C)=O)cc2)c(C)c2cc(OC(C)=O)ccc21, the T/C (dose: 25.0 mg/kg/injection, schedule: Q01DX005 (ip), vehicle: Klucel (hydroxypropylcellulose) (HPC)) was 100 % of control, the T/C [13] was 101 % of control and 102 % of control and the T/C [14] was 95 % of control and 97 % of control. For the same compound, the T/C [15] was 90 % of control and 96 % of control and the T/C (dose: 400.0 mg/kg/injection, schedule: Q01DX005 (ip), vehicle: Klucel (hydroxypropylcellulose) (HPC)) was 100 % of control.
With O=C1OC2C(I)C3CC2C1C3c1ccccc1 (stereo unspecified) the T/C [8] was 105 % of control, the T/C [9] was 103 % of control and the T/C [12] was 105 % of control.
Cc1ccc(S(=O)(=O)ON/N=c2\ccn(C)c3ccccc23)cc1 was tested, and the T/C [1] was 101 % of control, the T/C [5] was 99 % of control and the T/C [6] was 99 % of control.
For C=C1C(=O)OC2C1C(OC(=O)/C(C)=C/C)CC1(CO1)C1C(O)C3OC3(C)C21O (stereo unspecified), the T/C (dose: 25.0 mg/kg/injection, schedule: Q04DX002 (ip), vehicle: saline with Tween-80) was 117 % of control and the T/C (dose: 50.0 mg/kg/injection, schedule: Q04DX002 (ip), vehicle: saline with Tween-80) was 117 % of control.
In the case of CC(C)(O)C1CC(=O)C(C)(C2C(O)CC3(C)C4CC=C5C(CCC(O)C5(C)C)C4(C)C(=O)CC23C)O1 (stereo unspecified), the T/C (dose: 9.63 mg/kg/injection, schedule: Q01DX005 (ip), vehicle: saline + alcohol) is reported as 113 % of control, the T/C (dose: 19.25 mg/kg/injection, schedule: Q01DX005 (ip), vehicle: saline + alcohol) is reported as 102 % of control and the T/C (dose: 38.5 mg/kg/injection, schedule: Q01DX005 (ip), vehicle: saline + alcohol) is reported as 102 % of control. The T/C (dose: 77.0 mg/kg/injection, schedule: Q01DX005 (ip), vehicle: saline + alcohol) was 97 % of control.
In the case of COc1cc2nc(C)[nH]c(=O)c2cc1OC, the T/C [13] is reported as 109 % of control, the T/C [14] is reported as 90 % of control and the T/C [15] is reported as 99 % of control.
